According to ChEMBL document CHEMBL3813594, “Design and structure-activity relationships of novel inhibitors of human rhinovirus 3C protease” (Bioorg Med Chem Lett, 2016):

Columns and labels:
rhinovirus A2 [1] = assay: Antiviral activity against human rhinovirus 2 assessed as reduction in viral infection in human HeLa H1 cells pretreated for 1 to 2 hrs with virus followed by cell addition measured after 48 hrs by Celltiter-Glo reagent based assay; type: functional, organism-based
[2] = Antiviral activity against human rhinovirus 17 assessed as reduction in viral infection in human HeLa H1 cells pretreated for 1 to 2 hrs with virus followed by cell addition measured after 48 hrs by Celltiter-Glo reagent based assay; type: functional, Human rhinovirus B17
rhinovirus A16 [3] = assay: Antiviral activity against human rhinovirus 16 assessed as reduction in viral infection in human HeLa H1 cells pretreated for 1 to 2 hrs with virus followed by cell addition measured after 48 hrs by Celltiter-Glo reagent based assay; type: functional, organism-based
rhinovirus A25 = assay: Antiviral activity against human rhinovirus 25 assessed as reduction in viral infection in human HeLa H1 cells pretreated for 1 to 2 hrs with virus followed by cell addition measured after 48 hrs by Celltiter-Glo reagent based assay; type: functional, organism-based; conditions: Rhinovirus A
[4] = Antiviral activity against human rhinovirus 100 assessed as reduction in viral infection in human HeLa H1 cells pretreated for 1 to 2 hrs with virus followed by cell addition measured after 48 hrs by Celltiter-Glo reagent based assay; type: functional, Human rhinovirus A100; conditions: Rhinovirus A
[5] = Antiviral activity against human rhinovirus 8 assessed as reduction in viral infection in human HeLa H1 cells pretreated for 1 to 2 hrs with virus followed by cell addition measured after 48 hrs by Celltiter-Glo reagent based assay; type: functional, Human rhinovirus A8; conditions: Rhinovirus A
rhinovirus B14 = assay: Antiviral activity against human rhinovirus 14 assessed as reduction in viral infection in human HeLa H1 cells pretreated for 1 to 2 hrs with virus followed by cell addition measured after 48 hrs by Celltiter-Glo reagent based assay; type: functional, organism-based; conditions: Rhinovirus B
rhinovirus A85 = assay: Antiviral activity against human rhinovirus 85 assessed as reduction in viral infection in human HeLa H1 cells pretreated for 1 to 2 hrs with virus followed by cell addition measured after 48 hrs by Celltiter-Glo reagent based assay; type: functional, organism-based; conditions: Rhinovirus A
rhinovirus A41 = assay: Antiviral activity against human rhinovirus 41 assessed as reduction in viral infection in human HeLa H1 cells pretreated for 1 to 2 hrs with virus followed by cell addition measured after 48 hrs by Celltiter-Glo reagent based assay; type: functional, organism-based; conditions: Rhinovirus A
[6] = Antiviral activity against human rhinovirus 7 assessed as reduction in viral infection in human HeLa H1 cells pretreated for 1 to 2 hrs with virus followed by cell addition measured after 48 hrs by Celltiter-Glo reagent based assay; type: functional, Human rhinovirus A7; conditions: Rhinovirus A
rhinovirus A16 [7] = assay: Antiviral activity against human rhinovirus 16 assessed as reduction in viral infection in human HeLa H1 cells after 2 to 5 days by XTT reduction assay; type: functional, organism-based; conditions: Rhinovirus A
[8] = Antiviral activity against human rhinovirus 17 assessed as reduction in viral infection in human HeLa H1 cells after 2 to 5 days by XTT reduction assay; type: functional, cell-based, Human rhinovirus B17; conditions: Rhinovirus B
rhinovirus A2 [9] = assay: Antiviral activity against human rhinovirus 2 assessed as reduction in viral infection in human HeLa H1 cells after 2 to 5 days by XTT reduction assay; type: functional, organism-based; conditions: Rhinovirus A

Row | SMILES | EC50 (rhinovirus A2 [1]; Rhinovirus A, HeLa H1) [nM] | EC50 ([2]; Rhinovirus B, HeLa H1) [nM] | EC50 (rhinovirus A16 [3]; Rhinovirus A, HeLa H1) [nM] | EC50 (rhinovirus A25) [nM] | EC50 [4] [nM] | EC50 [5] [nM] | EC50 (rhinovirus B14) [nM] | EC50 (rhinovirus A85) [nM] | EC50 (rhinovirus A41) [nM] | EC50 [6] [nM] | EC50 (rhinovirus A2 [1]; hela h1) [nM] | EC50 ([2]; hela h1) [nM] | EC50 (rhinovirus A16 [3]; hela h1) [nM] | EC50 (rhinovirus A16 [7]) [nM] | EC50 [8] [nM] | EC50 (rhinovirus A2 [9]) [nM]
1 | CCOC(=O)/C=C/[C@H](C[C@@H]1CCNC1=O)NC(=O)[C@@H]1C[C@@H](Cc2ccccc2)CN1C(=O)[C@@H](NC(=O)c1cc(C)on1)C(C)C | 300 | 190 | 47 |  |  |  |  |  |  |  |  |  |  |  |  | 
2 | CCOC(=O)/C=C/[C@H](C[C@@H]1CCNC1=O)NC(=O)[C@@H]1CC[C@@H](c2ccccc2)N1C(=O)[C@@H](NC(=O)c1cc(C)on1)C(C)C | 1900 | 150 | 260 |  |  |  |  |  |  |  |  |  |  |  |  | 
3 | CCOC(=O)/C=C/[C@H](C[C@@H]1CCNC1=O)NC(=O)[C@@H]1C[C@@H](C2CCCCC2)CN1C(=O)[C@@H](NC(=O)c1cc(C)on1)C(C)C | 46 | 7 | 15 | 9 | 80 | 22 | 11 | 94 | 90 | 47 |  |  |  |  |  | 
4 | CCOC(=O)/C=C/[C@H](C[C@@H]1CCNC1=O)NC(=O)[C@@H]1C[C@@H](c2ccccc2)CN1C(=O)[C@@H](NC(=O)c1cc(C)on1)C(C)C | 140 | 11 | 24 | 19 | 110 | 37 | 13 | 250 | 130 | 81 |  |  |  |  |  | 
5 | CCOC(=O)/C=C/[C@H](C[C@@H]1CCNC1=O)NC(=O)[C@@H]1CCCN1C(=O)[C@@H](NC(=O)c1cc(C)on1)C(C)C | 1390 | 230 | 400 | 1890 | 1800 | 590 | 470 | 4200 | 1450 | 1300 |  |  |  |  |  | 
6 | CCOC(=O)/C=C/[C@H](C[C@@H]1CCNC1=O)NC(=O)[C@@H]1C[C@@H](CC#N)CN1C(=O)[C@@H](NC(=O)c1cc(C)on1)C(C)C | 430 | 500 | 199 |  |  |  |  |  |  |  |  |  |  |  |  | 
7 | CCOC(=O)/C=C/[C@H](C[C@@H]1CCNC1=O)NC(=O)[C@@H]1C[C@@H](Oc2ccccc2)CN1C(=O)[C@@H](NC(=O)c1cc(C)on1)C(C)C | 270 | 260 | 59 |  |  |  |  |  |  |  |  |  |  |  |  | 
8 | CCOC(=O)/C=C/[C@H](C[C@@H]1CCNC1=O)NC(=O)[C@@H]1[C@@H](c2ccccc2)CCN1C(=O)[C@@H](NC(=O)c1cc(C)on1)C(C)C | 8400 | 700 | 3000 | 4500 | 6500 | 3500 | 2500 | 9300 | 4500 | 8300 |  |  |  |  |  | 
9 | CCOC(=O)/C=C/[C@H](C[C@@H]1CCNC1=O)NC(=O)[C@@H]1[C@@H](c2ccccc2)CN1C(=O)[C@@H](NC(=O)c1cc(C)on1)C(C)C (stereo in doubt; 10) |  |  |  | 100 | 470 | 170 | 91 | 1140 | 530 | 420 | 300 | 90 | 300 |  |  | 
10 | CCOC(=O)/C=C/[C@H](C[C@@H]1CCNC1=O)NC(=O)[C@@H]1[C@@H](c2ccccc2)CN1C(=O)[C@@H](NC(=O)c1cc(C)on1)C(C)C (stereo in doubt; 11) |  |  |  |  |  |  |  |  |  |  | > 50000 | > 50000 | > 50000 |  |  | 
11 | CCOC(=O)/C=C/[C@H](C[C@@H]1CCNC1=O)NC(=O)[C@@H](CC(=O)[C@@H](NC(=O)c1cc(C)on1)C(C)C)Cc1ccc(F)cc1 [RUPINTRIVIR] |  |  |  |  |  |  |  |  |  |  |  |  |  | 14 | 14 | 12
